The values below are quoted from earlier work in patent publication US6855835B2, “Allomorph of isomer Z hydrochloride of alkylaminofurane derivative” (Pharmexcel SRL, priority 2000, dated 2005).

One data set has as its system histamine H2-receptors. As to conditions: Z isomer compared with E isomer; suggested by authors (10, 11).
The conditions of data set [1]: form 2 compared with form 1; quoted from prior patent (6).

Chain of histamine H2-receptors (P25021 whole entry): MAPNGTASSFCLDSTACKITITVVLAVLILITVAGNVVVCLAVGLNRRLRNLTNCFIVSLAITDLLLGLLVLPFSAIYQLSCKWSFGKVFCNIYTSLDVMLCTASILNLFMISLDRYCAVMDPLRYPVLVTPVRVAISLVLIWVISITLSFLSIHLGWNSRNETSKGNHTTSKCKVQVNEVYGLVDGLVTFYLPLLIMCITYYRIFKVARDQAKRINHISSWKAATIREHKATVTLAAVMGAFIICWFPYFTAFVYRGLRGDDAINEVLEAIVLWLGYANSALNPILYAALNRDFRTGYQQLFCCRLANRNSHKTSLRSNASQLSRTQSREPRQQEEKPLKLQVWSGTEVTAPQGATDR

Consider `CN/C(=C/[N+](=O)[O-])NCCSCc1ccc(CN(C)C)o1` (single isomer, unassigned) [Z, (N-[2-[[[5-(dimethylamino)methyl-2-furanyl]methyl]thio]ethyl]-N′-methyl-2-nitro-1,1-ethenediamine)], for which the “affinity for histamine H2-receptors” value in the data set with histamine H2-receptors is listed as “greater configurational affinity”.

Take `CNC(=C[N+](=O)[O-])NCCSCc1ccc(CN(C)C)o1.Cl` (racemic) [form 2, N-[2-[[[5-(dimethylamino)methyl-2-furanyl]methyl]thio]ethyl]-N′-methyl-2-nitro-1,1-ethenediamine hydrochloride]: the hygroscopicity result in data set [1] is on record as “less hygroscopic than form 1”.
